One assay addresses human MCH-2R (Homo sapiens, UniProt Q969V1). The following applies: cited from earlier work.
Assay [1] has as its system islets isolated from C57B1/6J mice. Description: MCH stimulation of insulin secretion from overnight cultured isolated islets. It counts as cell-based, mouse.
In assay [2] the test system is islets isolated from MCH over expressing mice. Description: MCH treatment of islets from MCH over expressing mice (insulin secretion). The following applies: n=2, control 2.8±0.36. In kind it is cell-based, mouse.
A further assay has as its system MAP kinase. In words: Effect of MCH on MAP kinase activity in islets or clonal β-cells. In kind it is cell-based, mouse. The settings on record: islets or clonal β-cells treated with 1 μM MCH. An excerpt: To begin to examine the mechanism of action of MCH in the islets the effect of the peptide on MAP kinase activity was investigated.
In another assay the test system is rat adipocytes. The settings on record: cited from earlier work.
The test system of another assay is feeding. The following applies: administered ICV; cited from earlier work.

Positions of bridges follow the written chain, without caps; N, C: chain ends.

human MCH-2R, sequence (Q969V1 whole entry): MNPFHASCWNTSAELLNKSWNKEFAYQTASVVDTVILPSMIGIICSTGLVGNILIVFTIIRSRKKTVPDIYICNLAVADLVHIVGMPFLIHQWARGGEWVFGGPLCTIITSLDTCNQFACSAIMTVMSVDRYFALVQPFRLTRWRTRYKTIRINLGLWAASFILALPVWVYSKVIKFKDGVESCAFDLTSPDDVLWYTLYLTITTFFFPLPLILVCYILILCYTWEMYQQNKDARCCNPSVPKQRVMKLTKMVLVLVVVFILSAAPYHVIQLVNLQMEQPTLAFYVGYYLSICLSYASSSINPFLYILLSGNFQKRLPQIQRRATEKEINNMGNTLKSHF

As for “Arg-cyclo(S-S)(Cys-Met-Leu-Gly-Arg-Val-Tyr-Arg-Pro-Cys)”, the “activation of receptor compared with full-length human MCH” value in the assay with human MCH-2R is reported as “about as effectively as full-length human MCH”.
Turning to “NH2-Asp-Phe-Asp-Met-Leu-Arg-Cys-Met-Leu-Gly-Arg-Val-Tyr-Arg-Pro-Cys-Trp-Gln-Val-COOH (H-DFDMLRCMLGRVYRPCWQV-OH; disulfide 7-16 (inferred); ends not checked) [MCH, cyclic 19 amino-acid peptide that is an important regulator of feeding behavior]”, the insulin secretion is reported as 2.1±0.11 % of insulin content in assay [1] (100 nM MCH, 30 min incubation, 11.1 mM glucose, n=3, p<0.02 vs control 0.86±0.22) and 11.4±0.49 pg/μg protein in assay [2]. Moreover, the “insulin secretion, dependence on concentration and time” value in assay [1] (overnight cultured islets) was “concentration- and time-dependent insulin secretion”. Moreover, the “effect on MAP kinase levels” value in the assay on MAP kinase is listed as “No consistent effect”. Besides, in the assay on rat adipocytes, the leptin secretion entry is “stimulate leptin secretion”. In addition, the feeding result in the assay on feeding is “acute increase in feeding”.
